Data from patent publication US6773896B2, “Method for direct measurement of coagulation factor VIIa activity in plasma” (Warner-Lambert Company, priority 2001, dated 2004).
Each block holds one compound with its values, some of them ahead of it.

Legend:
[1] = target: T1, FVIIa/TF complex (Homo sapiens, UniProt P08709); assay: In vitro one-stage FVIIa activity assay in human plasma (Spectrozyme FVIIa cleavage); type: biochemical; conditions: for Effect on FVIIa activity in human plasma: 0.625% pooled human plasma, 10 nM FVIIa, 15 nM TF, vs own control
T1 construct: purchased American Diagnostica, Greenwich, Conn
Protocol: The proteolytic activity of FVIIa was measured by cleavage of paranitroanilide (pNA) substrate (Spectrozyme FVIIa) in a 96-well microtiter plate.
A series of samples containing enzyme inhibitors (0-300 μM) were added to well in a 96-well microtiter plate containing Tris-buffer ([…] Tris, pH 7.4, 100 mM NaCl), 0.625% plasma, 0.1% BSA. After addition of FVIIa (10 nM in final concentration), the plate was incubated for 15 minutes at 37° C. Then the TF (15 nM in final concentration) and CaCl2 (5 mM in final concentration) were added, and the plate was incubated for additional 15 minutes at 37° C. again. After incubation, the substrate (Spectrozyme FVIIa) was added at a final concentration of 0.5 mM to result in a final volume of 200 μL/well. The rate of change in absorbance at 405 nm was monitored by a Softmax plate reader (Molecular Devices).
Above four inhibitors were evaluated in pooled human plasma for their inhibitory effects on FVIIa activity. Effects of FVIIai, 2-[6-(3-Carbamimidoyl-phenoxy)-3,5-difluoro-4-(1-methyl-3-phenyl-propylamino)-pyridin-2-yloxy]-5-dimethylamino-4-methyl-benzoic acid, ({2-(5-Carbamimidoyl-2-hydroxy-phenoxy)-3,5-difluoro-6-[3-(1-methyl-4,5-dihydro-1H-imidazol-2-yl)-phenoxy]-pyridin-4-yl}-methyl-amino)-acetic acid, and (S)-4-[3-(cyclopentylmethylamino)-2-[(2-naphthalenylsulfony)amino]-3-oxopropyl]benzenecarboximidic acid hydrazide on FVIIa activity were compared with their own control group. The activity of FVIIa was obtained with a final concentration of 0.625% human plasma, 10 nM FVIIa, 15 nM TF, 5 mM CaCl2, and 0.5 mM SPZFVIIa.

[2] = target: T2, FVIIa (Homo sapiens, UniProt P08709); assay: Ex vivo FVIIa activity assay in plasma of hypercholesterolemic rabbits (balloon-induced injury model of thrombosis); parameters: species or system rabbit; conditions: IV bolus 0.3 and 1.0 mg/kg, 3 minutes after administration
T2 construct: purchased American Diagnostica, Greenwich, Conn
Protocol: (§1) The FVIIa activity was measured in plasma collected from hypercholesterolemic rabbits in a balloon-induced injury model of thrombosis. The rabbits received two doses of 7-[(R)-3-(3-Amino-benzyl)-4-(4-amino-phenyl)-4-methyl-2,5-dioxo-imidazolidin-1-ylmethyl]-naphthalene-2-carboxamidine, IV bolus, 0.3 mg/kg (n=5) and 1.0 mg/kg (n=6). Blood samples were collected before and 3 minutes after administration, followed by plasma preparation. Plasma samples were extracted using CH3CN and reconstituted in Tris-buffer. The protocol is the same as ex vivo study of 2-[6-(3-Carbamimidoyl-phenoxy)-3,5-difluoro-4-(1-methyl-3-phenyl-propylamino)-pyridin-2-yloxy]-5-dimethylamino-4-methyl-benzoic acid. The plasma levels of 7-[(R)-3-(3-Amino-benzyl)-4-(4-amino-phenyl)-4-methyl-2,5-dioxo-imidazolidin-1-ylmethyl]-naphthalene-2-carboxamidine were calculated based on the test plasma FVIIa activity and an IC50 standard curve. […]
(§2) The inhibitory effect and plasma concentration of 7-[(R)-3-(3-Amino-benzyl)-4-(4-amino-phenyl)-4-methyl-2,5-dioxo-imidazolidin-1-ylmethyl]-naphthalene-2-carboxamidine was determined in balloon-induced injury model of thrombosis in hypercholesterolemic rabbits. […] The inhibitory effect of 7-[(R)-3-(3-Amino-benzyl)-4-(4-amino-phenyl)-4-methyl-2,5-dioxo-imidazolidin-1-ylmethyl]-naphthalene-2-carboxamidine was measured by FVIIa activity assay. […]

[3] = Plasma level in hypercholesterolemic rabbits calculated from FVIIa activity; type: in vivo, rabbit; conditions: IV bolus 0.3 and 1.0 mg/kg, 3 minutes after administration
Protocol: as §1, §2

[4] = target: thrombin (Homo sapiens, UniProt P00734); assay: Inhibition of thrombin (stated potency); type: biochemical
[5] = target: T3, human FVIIa (Homo sapiens, UniProt P08709); assay: Inhibition of human FVIIa (stated potency); type: biochemical; conditions: read-out: IC50 against human FVIIa
T3 sequence (P08709 213-466 limits assumed): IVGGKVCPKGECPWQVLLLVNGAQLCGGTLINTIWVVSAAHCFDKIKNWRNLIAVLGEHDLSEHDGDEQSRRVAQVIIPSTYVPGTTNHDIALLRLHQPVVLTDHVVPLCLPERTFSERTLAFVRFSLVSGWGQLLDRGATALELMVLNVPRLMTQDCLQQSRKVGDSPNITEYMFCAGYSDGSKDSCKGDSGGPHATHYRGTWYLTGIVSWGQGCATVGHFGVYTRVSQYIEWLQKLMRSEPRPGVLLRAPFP
T3 sequence (P08709 61-212 partner limits assumed): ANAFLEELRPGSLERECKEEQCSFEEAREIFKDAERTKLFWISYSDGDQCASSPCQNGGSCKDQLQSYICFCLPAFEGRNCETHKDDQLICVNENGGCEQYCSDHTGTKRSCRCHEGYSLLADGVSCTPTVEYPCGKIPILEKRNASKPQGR

[6] = Ex vivo study in rabbit plasma: plasma concentration calculated from FVIIa activity; conditions: 3 mg/kg IV bolus, 1-60 min, n=3, calculated from FVIIa activity and IC50 standard curve
Protocol: (§3) The FVIIa activity was measured in the plasma collected from rabbits that received 2-[6-(3-Carbamimidoyl-phenoxy)-3,5-difluoro-4-(1-methyl-3-phenyl-propylamino)-pyridin-2-yloxy]-5-dimethylamino-4-methyl-benzoic acid, IV bolus, 3 mg/kg (n=3). Blood samples were collected before and 1, 5, 10, 30, and 60 minutes after the onset of administration, followed by plasma preparation. 2-[6-(3-Carbamimidoyl-phenoxy)-3,5-difluoro-4-(1-methyl-3-phenyl-propylamino)-pyridin-2-yloxy]-5-dimethylamino-4-methyl-benzoic acid in plasma was extracted using 4 volumes of CH3CN to 1 volume of plasma. Precipitated proteins were removed by centrifugation at 2000 g for 5 minutes. Solvent was decanted into small glass tubes and dried at 37° C. under a stream of nitrogen, then reconstituted in Tris-buffer. The method of FVIIa activity assay is the same as in vitro study. FVIIa activity was determined by measuring the rate of absorbance change at 405 nm due to cleavage of the spectrozyme FVIIa (0.5 mM) by FVIIa/TF complex. Plasma concentrations of 2-[6-(3-Carbamimidoyl-phenoxy)-3,5-difluoro-4-(1-methyl-3-phenyl-propylamino)-pyridin-2-yloxy]-5-dimethylamino-4-methyl-benzo acid were determined by using a standards inhibition curve that were generated from rabbit plasma containing known amount of inhibitor and processed identically to test samples. […]

[7] = target: T2, FVIIa; assay: Ex vivo FVIIa activity assay in plasma from treated rabbits, two plasma concentrations; conditions: rabbit, 3 mg/kg IV bolus
Protocol: as §3

T1 sequence (P13726 33-295 partner, one chain of several): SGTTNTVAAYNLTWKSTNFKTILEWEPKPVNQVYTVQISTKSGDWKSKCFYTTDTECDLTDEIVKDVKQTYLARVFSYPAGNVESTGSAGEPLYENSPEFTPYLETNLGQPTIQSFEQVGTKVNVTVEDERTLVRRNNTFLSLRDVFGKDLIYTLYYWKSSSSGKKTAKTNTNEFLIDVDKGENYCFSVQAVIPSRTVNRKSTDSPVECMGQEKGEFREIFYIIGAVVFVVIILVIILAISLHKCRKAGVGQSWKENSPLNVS
T2 sequence (P13726 33-295 partner, one chain of several): as above

Effect on FVIIa activity in human plasma ([1]; 100 nM): did not alter FVIIa activity
SMILES: CN1CCN=C1c1cccc(Oc2nc(Oc3cc(C(=N)N)ccc3O)c(F)c(N(C)CC(=O)O)c2F)c1 [({2-(5-Carbamimidoyl-2-hydroxy-phenoxy)-3,5-difluoro-6-[3-(1-methyl-4,5-dihydro-1H-imidazol-2-yl)-phenoxy]-pyridin-4-yl}-methyl-amino)-acetic acid]

Plasma level [3]: dose-dependent changes
SMILES: C[C@@]1(c2ccc(N)cc2)C(=O)N(Cc2ccc3ccc(C(=N)N)cc3c2)C(=O)N1Cc1cccc(N)c1 [7-[(R)-3-(3-Amino-benzyl)-4-(4-amino-phenyl)-4-methyl-2,5-dioxo-imidazolidin-1-ylmethyl]-naphthalene-2 carboxamidine]
Ex vivo inhibitory effect on FVIIa activity [2]: dose-dependent changes in inhibitory effect

Effect on FVIIa activity in human plasma ([1]; 100 nM): did not alter FVIIa activity
IC50 ([4]; read-out: IC50 against thrombin): 2 nM
Ki ([4]; read-out: Ki against thrombin): 0.38 nM
SMILES: N=C(NN)c1ccc(C[C@H](NS(=O)(=O)c2ccc3ccccc3c2)C(=O)NCC2CCCC2)cc1 [(S)-4-[3-(cyclopentylmethylamino)-2-[(2-naphthalenylsulfonyl)amino]-3-oxoprpoyl]-benzenecarboximidic acid hydrazide]

IC50 [5]: 15 nM
Effect on FVIIa activity in human plasma ([1]; 300 nM): significantly decreased FVIIa activity
Inhibition on FVIIa activity in human plasma over a series of concentrations ([1]; human plasma, series of concentrations): dose-dependent inhibition
Ex vivo inhibitory effect on FVIIa activity with 1.25% vs 0.625% plasma in the assay [7]: same inhibitory effect
SMILES: Cc1cc(Oc2nc(Oc3cccc(C(=N)N)c3)c(F)c(NC(C)CCc3ccccc3)c2F)c(C(=O)O)cc1N(C)C (centres unmarked) [2-[6-(3-Carbamimidoyl-phenoxy)-3,5-difluoro-4-(1-methyl-3-phenyl-propylamino)-pyridin-2-yloxy]-5-dimethylamino-4-methyl-benzoic acid]
Plasma concentration after IV bolus administration [6]: time-dependent change in plasma concentration
